# Test results taken from the supplement of paper PMC10733146.
# Assays:
# Assay in all cases: viability relative to DMSO control (fraction); higher = less drug effect (more viable cells)
# Conditions in all cases: 48 h
# [1] = test system: primary AML patient cells (S081)
# Outline: (§1)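 Viability was measured as CellTiter-Glo luminescence relative to the median of 16 inner DMSO wells. Primary mononuclear tumour cells, fresh or cryopreserved, were Ficoll-isolated from blood or bone marrow or taken from processed lymph node. They were seeded at 4 × 10^4 cells per well into 384-well plates holding pre-plated compounds at five concentrations, one well each, and kept in RPMI-1640 with penicillin/streptomycin, L-glutamine and human serum at 37 °C and 5% CO2 for 48 h.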
# [2] = test system: primary FL patient cells (S022)
# Outline: as §1
# [3] = test system: primary ALL patient cells (S048)
# Outline: as §1
# [4] = test system: primary AML patient cells (S011)
# Outline: as §1
# [5] = test system: primary AML patient cells (S017)
# Outline: as §1
# [6] = test system: primary BL patient cells (S005)
# Outline: as §1
# [7] = test system: primary AML patient cells (S006)
# Outline: as §1
# [8] = test system: primary MCL patient cells (S063)
# Outline: as §1
# [9] = test system: primary FL patient cells (S087)
# Outline: as §1
# [10] = test system: primary AML patient cells (S060)
# Outline: as §1
# [11] = test system: primary CLL patient cells (S031)
# Outline: as §1
# [12] = test system: primary AML patient cells (S021)
# Outline: as §1
# [13] = test system: primary AML patient cells (S012)
# Outline: as §1
# [14] = test system: primary CLL patient cells (S043)
# Outline: as §1
# [15] = test system: primary B-PLL patient cells (S016)
# Outline: as §1
# [16] = test system: primary AML patient cells (S085)
# Outline: as §1
# [17] = test system: primary ALL patient cells (S088)
# Outline: as §1
# [18] = test system: primary MCL patient cells (S068)
# Outline: as §1
# [19] = test system: primary AML patient cells (S056)
# Outline: as §1
# [20] = test system: primary MCL patient cells (S053)
# Outline: as §1
structure (smiles),measurement,setting,value
Cc1nc(Nc2ncc(C(=O)Nc3c(C)cccc3Cl)s2)cc(N2CCN(CCO)CC2)n1 [Dasatinib],viability,[1]; 0.0016 µM,1.14
same,viability,[1]; 0.008 µM,1.01
same,viability,[1]; 0.04 µM,0.693
same,viability,[1]; 0.2 µM,0.54
same,viability,[1]; 1 µM,0.764
same,viability,[2]; 0.0016 µM,0.931
same,viability,[2]; 0.008 µM,0.857
same,viability,[2]; 0.04 µM,0.841
same,viability,[2]; 0.2 µM,0.773
same,viability,[2]; 1 µM,0.698
same,viability,[3]; 0.0016 µM,1.05
same,viability,[3]; 0.008 µM,0.937
same,viability,[3]; 0.04 µM,0.911
same,viability,[3]; 0.2 µM,0.864
same,viability,[3]; 1 µM,0.926
same,viability,[4]; 0.0016 µM,1.06
same,viability,[4]; 0.008 µM,0.884
same,viability,[4]; 0.04 µM,0.909
same,viability,[4]; 0.2 µM,0.882
same,viability,[4]; 1 µM,0.936
same,viability,[5]; 0.0016 µM,0.997
same,viability,[5]; 0.008 µM,0.859
same,viability,[5]; 0.04 µM,0.654
same,viability,[5]; 0.2 µM,0.689
same,viability,[5]; 1 µM,0.711
same,viability,[6]; 0.0016 µM,0.917
same,viability,[6]; 0.008 µM,0.807
same,viability,[6]; 0.04 µM,0.788
same,viability,[6]; 0.2 µM,0.7
same,viability,[6]; 1 µM,0.697
same,viability,[7]; 0.0016 µM,0.961
same,viability,[7]; 0.008 µM,0.912
same,viability,[7]; 0.04 µM,0.88
same,viability,[7]; 0.2 µM,0.808
same,viability,[8]; 0.0016 µM,1
same,viability,[8]; 0.008 µM,0.653
same,viability,[8]; 0.04 µM,0.245
same,viability,[8]; 0.2 µM,0.151
same,viability,[8]; 1 µM,0.118
same,viability,[9]; 0.0016 µM,0.914
same,viability,[9]; 0.008 µM,0.782
same,viability,[9]; 0.04 µM,0.747
same,viability,[9]; 0.2 µM,0.753
same,viability,[9]; 1 µM,0.742
same,viability,[10]; 0.0016 µM,1.02
same,viability,[10]; 0.008 µM,1.03
same,viability,[10]; 0.04 µM,0.901
same,viability,[10]; 0.2 µM,0.891
same,viability,[10]; 1 µM,0.638
same,viability,[11]; 0.0016 µM,0.944
same,viability,[11]; 0.008 µM,0.609
same,viability,[11]; 0.04 µM,0.393
same,viability,[11]; 0.2 µM,0.325
same,viability,[11]; 1 µM,0.313
same,viability,[12]; 0.0016 µM,0.964
same,viability,[12]; 0.008 µM,0.799
same,viability,[12]; 0.04 µM,0.73
same,viability,[12]; 0.2 µM,0.615
same,viability,[12]; 1 µM,0.638
same,viability,[13]; 0.0016 µM,0.993
same,viability,[13]; 0.008 µM,0.917
same,viability,[13]; 0.04 µM,1.01
same,viability,[13]; 0.2 µM,1
same,viability,[13]; 1 µM,1.01
same,viability,[14]; 0.0016 µM,1.31
same,viability,[14]; 0.008 µM,1.2
same,viability,[14]; 0.04 µM,0.67
same,viability,[14]; 0.2 µM,0.595
same,viability,[14]; 1 µM,0.547
same,viability,[15]; 0.0016 µM,0.693
same,viability,[15]; 0.008 µM,0.45
same,viability,[15]; 0.04 µM,0.397
same,viability,[15]; 0.2 µM,0.368
same,viability,[15]; 1 µM,0.445
same,viability,[16]; 0.0016 µM,0.943
same,viability,[16]; 0.008 µM,0.736
same,viability,[16]; 0.04 µM,0.691
same,viability,[16]; 0.2 µM,0.605
same,viability,[16]; 1 µM,0.91
same,viability,[17]; 0.0016 µM,0.899
same,viability,[17]; 0.008 µM,0.709
same,viability,[17]; 0.04 µM,0.62
same,viability,[17]; 0.2 µM,0.545
same,viability,[17]; 1 µM,0.631
same,viability,[18]; 0.0016 µM,0.912
same,viability,[18]; 0.008 µM,0.671
same,viability,[18]; 0.04 µM,0.4
same,viability,[18]; 0.2 µM,0.341
same,viability,[18]; 1 µM,0.357
same,viability,[19]; 0.0016 µM,0.859
same,viability,[19]; 0.008 µM,1.03
same,viability,[19]; 0.04 µM,0.748
same,viability,[19]; 0.2 µM,0.63
same,viability,[19]; 1 µM,0.572
same,viability,[20]; 0.0016 µM,1.14
same,viability,[20]; 0.008 µM,0.882
same,viability,[20]; 0.04 µM,0.494
same,viability,[20]; 0.2 µM,0.342
same,viability,[20]; 1 µM,0.347
